Experimental data: ChEMBL document CHEMBL3879901, “Substituted isoquinolin-1(2H)-ones, and methods of use thereof” (2012)

What was measured:
[1] = molecular target: Phosphatidylinositol 4,5-bisphosphate 3-kinase catalytic subunit gamma isoform (Homo sapiens, UniProt P48736); test: Inhibition of recombinant human C-terminal His6-tagged p110gamma expressed in insect cells using phosphatidylinositol as substrate in presence of gamma-32P-ATP after 5 mins by thin layer chromatographic method
PI3K p110 beta/p85 alpha = PI3K p110 beta/p85 alpha (Homo sapiens, UniProt P42338); test: Inhibition of N-terminal His6-tagged recombinant full-length human p110beta/untagged recombinant full length p85alpha expressed in baculovirus infected Sf21 cells using phosphatidylinositol as substrate in presence of gamma-32P-ATP after 5 mins by thin layer chromatographic method
Sequence of PI3K p110 beta/p85 alpha (P27986 whole entry): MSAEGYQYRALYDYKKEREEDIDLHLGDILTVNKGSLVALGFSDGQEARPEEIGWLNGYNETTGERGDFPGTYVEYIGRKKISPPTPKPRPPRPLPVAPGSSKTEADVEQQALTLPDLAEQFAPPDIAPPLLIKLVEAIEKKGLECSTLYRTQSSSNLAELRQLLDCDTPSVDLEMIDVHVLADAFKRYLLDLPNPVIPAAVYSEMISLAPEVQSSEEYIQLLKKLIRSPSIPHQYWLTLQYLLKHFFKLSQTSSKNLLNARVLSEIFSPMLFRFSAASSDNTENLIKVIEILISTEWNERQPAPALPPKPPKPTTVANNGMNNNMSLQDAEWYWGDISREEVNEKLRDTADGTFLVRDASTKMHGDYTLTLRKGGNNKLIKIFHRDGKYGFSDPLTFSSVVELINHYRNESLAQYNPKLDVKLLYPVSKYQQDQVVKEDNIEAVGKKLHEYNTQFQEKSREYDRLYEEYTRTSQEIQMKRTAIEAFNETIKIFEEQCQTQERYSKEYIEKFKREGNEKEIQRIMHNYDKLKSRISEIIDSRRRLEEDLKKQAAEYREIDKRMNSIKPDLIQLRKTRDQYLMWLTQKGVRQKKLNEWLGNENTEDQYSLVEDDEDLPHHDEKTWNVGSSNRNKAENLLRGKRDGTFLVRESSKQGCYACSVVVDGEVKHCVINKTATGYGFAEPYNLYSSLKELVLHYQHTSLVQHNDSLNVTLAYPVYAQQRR
Sequence of PI3K p110 beta/p85 alpha (P42338 whole entry): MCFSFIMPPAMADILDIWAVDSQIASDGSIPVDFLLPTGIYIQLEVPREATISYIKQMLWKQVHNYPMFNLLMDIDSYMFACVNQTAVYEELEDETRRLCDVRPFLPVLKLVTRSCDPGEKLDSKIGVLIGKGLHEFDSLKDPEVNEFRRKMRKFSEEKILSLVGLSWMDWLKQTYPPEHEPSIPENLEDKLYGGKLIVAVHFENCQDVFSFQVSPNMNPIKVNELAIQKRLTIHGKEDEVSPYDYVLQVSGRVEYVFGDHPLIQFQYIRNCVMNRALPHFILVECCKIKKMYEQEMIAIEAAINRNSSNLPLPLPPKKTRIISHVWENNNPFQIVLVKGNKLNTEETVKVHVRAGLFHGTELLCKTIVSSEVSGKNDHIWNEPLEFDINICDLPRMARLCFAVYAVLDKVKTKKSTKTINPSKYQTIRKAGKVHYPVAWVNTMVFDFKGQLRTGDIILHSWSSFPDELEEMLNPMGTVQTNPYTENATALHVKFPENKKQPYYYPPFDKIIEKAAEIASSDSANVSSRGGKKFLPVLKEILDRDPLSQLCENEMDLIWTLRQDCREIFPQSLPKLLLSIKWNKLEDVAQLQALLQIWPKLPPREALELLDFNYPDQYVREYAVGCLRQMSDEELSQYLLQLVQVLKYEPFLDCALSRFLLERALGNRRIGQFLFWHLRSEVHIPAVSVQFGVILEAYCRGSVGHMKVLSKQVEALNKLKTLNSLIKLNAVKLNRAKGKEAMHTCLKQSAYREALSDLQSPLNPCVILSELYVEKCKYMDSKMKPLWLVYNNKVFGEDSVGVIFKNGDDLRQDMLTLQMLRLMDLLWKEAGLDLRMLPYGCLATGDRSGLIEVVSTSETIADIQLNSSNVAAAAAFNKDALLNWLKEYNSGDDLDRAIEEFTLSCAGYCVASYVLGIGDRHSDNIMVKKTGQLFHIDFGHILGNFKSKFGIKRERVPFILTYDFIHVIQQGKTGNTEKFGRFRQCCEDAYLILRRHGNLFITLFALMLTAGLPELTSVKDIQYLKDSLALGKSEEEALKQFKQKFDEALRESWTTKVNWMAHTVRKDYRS

[2] = molecular target: PI3-kinase p110-delta/p85-alpha (Homo sapiens, UniProt O00329); test: Inhibition of N-terminal His6-tagged recombinant full-length human p110delta/untagged recombinant full length p85alpha expressed in baculovirus infected Sf21 cells using phosphatidylinositol as substrate in presence of gamma-32P-ATP after 5 mins by thin layer chromatographic method
Sequence of PI3-kinase p110-delta/p85-alpha (P27986 whole entry): as the sequence (P27986 whole entry) above
Sequence of PI3-kinase p110-delta/p85-alpha (O00329 whole entry): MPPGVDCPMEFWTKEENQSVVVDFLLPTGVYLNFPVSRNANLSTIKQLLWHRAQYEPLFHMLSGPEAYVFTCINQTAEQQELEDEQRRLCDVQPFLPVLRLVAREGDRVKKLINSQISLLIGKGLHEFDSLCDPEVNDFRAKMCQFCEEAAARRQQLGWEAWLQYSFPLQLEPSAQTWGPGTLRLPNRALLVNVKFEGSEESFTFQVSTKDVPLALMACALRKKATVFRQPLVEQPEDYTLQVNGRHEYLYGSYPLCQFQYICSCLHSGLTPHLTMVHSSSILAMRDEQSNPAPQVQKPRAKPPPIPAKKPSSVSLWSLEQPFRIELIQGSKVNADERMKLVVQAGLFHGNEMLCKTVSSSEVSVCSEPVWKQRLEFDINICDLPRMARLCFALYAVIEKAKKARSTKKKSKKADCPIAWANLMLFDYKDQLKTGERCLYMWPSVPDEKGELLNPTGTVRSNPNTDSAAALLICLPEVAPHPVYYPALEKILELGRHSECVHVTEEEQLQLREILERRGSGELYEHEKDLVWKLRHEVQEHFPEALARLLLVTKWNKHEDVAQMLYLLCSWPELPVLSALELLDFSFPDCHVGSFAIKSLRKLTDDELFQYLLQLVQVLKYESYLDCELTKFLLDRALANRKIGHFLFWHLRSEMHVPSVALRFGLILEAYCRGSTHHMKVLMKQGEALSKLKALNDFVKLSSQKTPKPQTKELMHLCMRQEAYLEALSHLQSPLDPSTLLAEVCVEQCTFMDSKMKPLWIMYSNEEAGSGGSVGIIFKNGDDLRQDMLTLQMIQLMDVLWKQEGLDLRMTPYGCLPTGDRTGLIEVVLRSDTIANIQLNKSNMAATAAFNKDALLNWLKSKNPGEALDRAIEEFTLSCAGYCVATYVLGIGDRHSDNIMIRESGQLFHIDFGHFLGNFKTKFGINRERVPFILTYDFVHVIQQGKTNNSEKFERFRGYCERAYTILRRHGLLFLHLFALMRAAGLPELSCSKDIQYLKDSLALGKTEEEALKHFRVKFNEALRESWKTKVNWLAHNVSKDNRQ

[3] = molecular target: PI3-kinase p110-alpha/p85-alpha (Homo sapiens, UniProt P42336); test: Inhibition of N-terminal His6-tagged recombinant full-length human p110alpha/untagged recombinant full length human p85alpha expressed in baculovirus infected Sf21 cells using phosphatidylinositol as substrate in presence of gamma-32P-ATP after 5 mins by thin layer chromatographic method
Sequence of PI3-kinase p110-alpha/p85-alpha (P27986 whole entry): as the sequence (P27986 whole entry) above
Sequence of PI3-kinase p110-alpha/p85-alpha (P42336 whole entry): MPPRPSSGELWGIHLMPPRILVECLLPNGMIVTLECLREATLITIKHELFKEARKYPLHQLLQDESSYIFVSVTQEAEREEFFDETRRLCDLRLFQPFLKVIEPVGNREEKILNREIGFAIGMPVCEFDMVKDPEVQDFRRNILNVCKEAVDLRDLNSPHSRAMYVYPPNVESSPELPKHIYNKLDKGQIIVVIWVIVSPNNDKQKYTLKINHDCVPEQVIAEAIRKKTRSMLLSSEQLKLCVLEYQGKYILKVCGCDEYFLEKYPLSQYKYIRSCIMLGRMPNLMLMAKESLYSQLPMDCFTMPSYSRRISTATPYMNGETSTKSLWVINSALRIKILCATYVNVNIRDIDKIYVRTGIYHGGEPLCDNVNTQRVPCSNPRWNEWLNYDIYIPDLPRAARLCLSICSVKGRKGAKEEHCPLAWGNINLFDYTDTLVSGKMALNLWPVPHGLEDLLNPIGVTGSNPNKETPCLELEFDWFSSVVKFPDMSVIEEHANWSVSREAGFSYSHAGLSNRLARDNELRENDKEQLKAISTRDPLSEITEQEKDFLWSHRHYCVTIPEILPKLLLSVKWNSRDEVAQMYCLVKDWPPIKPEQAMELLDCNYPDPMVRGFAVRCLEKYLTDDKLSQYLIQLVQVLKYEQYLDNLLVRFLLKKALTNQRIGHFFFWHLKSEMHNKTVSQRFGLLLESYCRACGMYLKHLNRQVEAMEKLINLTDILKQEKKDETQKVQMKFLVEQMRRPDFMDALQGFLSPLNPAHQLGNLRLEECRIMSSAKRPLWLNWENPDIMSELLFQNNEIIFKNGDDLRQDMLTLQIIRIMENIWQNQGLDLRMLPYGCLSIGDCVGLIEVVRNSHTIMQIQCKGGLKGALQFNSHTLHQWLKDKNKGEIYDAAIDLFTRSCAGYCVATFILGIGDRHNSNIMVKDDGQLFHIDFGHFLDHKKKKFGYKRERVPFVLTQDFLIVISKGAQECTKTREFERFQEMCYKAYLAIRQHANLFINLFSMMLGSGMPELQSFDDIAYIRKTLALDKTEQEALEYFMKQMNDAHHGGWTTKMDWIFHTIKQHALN

[4] = Antiproliferative activity against Balb/c mouse splenic B cells preincubated for 30 mins followed by LPS or F(ab')2 donkey anti-mouse IgM and recombinant mouse IL4 stimulation measured after 72 hrs by Alamar Blue reduction assay; type: functional, cell-based

Sequence of Phosphatidylinositol 4,5-bisphosphate 3-kinase catalytic subunit gamma isoform (P48736 whole entry, canonical isoform): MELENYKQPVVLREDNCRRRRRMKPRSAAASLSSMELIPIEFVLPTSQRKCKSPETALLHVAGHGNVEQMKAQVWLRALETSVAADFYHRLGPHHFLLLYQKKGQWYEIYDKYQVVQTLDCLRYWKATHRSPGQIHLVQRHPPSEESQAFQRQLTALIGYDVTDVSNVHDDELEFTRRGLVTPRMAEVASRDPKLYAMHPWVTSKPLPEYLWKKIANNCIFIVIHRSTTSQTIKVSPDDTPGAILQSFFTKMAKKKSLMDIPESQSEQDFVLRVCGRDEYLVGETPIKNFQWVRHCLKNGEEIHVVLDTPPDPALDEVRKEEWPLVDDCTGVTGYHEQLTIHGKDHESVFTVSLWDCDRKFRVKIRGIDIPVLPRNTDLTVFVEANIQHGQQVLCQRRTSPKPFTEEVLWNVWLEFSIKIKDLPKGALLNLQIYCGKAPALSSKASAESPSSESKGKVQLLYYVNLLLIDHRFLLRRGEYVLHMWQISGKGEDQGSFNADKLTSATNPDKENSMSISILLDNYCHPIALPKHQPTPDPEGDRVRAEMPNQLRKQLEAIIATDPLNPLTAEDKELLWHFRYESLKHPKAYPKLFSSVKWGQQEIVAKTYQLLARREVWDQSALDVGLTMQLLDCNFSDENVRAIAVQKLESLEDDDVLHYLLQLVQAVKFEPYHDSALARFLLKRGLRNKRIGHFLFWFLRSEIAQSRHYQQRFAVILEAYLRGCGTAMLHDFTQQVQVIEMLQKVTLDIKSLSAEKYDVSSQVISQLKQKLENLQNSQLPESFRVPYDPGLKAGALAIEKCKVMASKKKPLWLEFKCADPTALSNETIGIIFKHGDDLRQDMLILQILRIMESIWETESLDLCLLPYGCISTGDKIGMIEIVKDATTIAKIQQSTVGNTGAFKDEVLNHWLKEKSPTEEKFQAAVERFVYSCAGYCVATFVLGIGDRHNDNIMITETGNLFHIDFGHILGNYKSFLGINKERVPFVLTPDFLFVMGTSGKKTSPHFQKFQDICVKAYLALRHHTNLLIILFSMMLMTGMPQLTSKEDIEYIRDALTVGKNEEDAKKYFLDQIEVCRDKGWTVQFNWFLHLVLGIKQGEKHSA

Row | Structure (SMILES) | IC50 [1] [nM] | IC50 (PI3K p110 beta/p85 alpha) [nM] | IC50 [2] [nM] | IC50 [3] [nM] | EC50 [4] [nM]
1 | Cc1cccc2cc([C@H](C)Nc3ncnc4[nH]cc(C(N)=O)c34)n(C3CC3)c(=O)c12 | < 100 | < 100 | < 100 | – | –
2 | Cc1ccccc1-n1c(Cn2nc(-c3ccc(Cl)cc3)c3c(N)ncnc32)cc2cccc(C)c2c1=O | < 1000 | – | < 1000 | > 10000 | < 10000
3 | Cc1cccc2cc(Cn3nc(-c4ccc5oc(N)nc5c4)c4c(N)ncnc43)n(C3CC3)c(=O)c12 | < 100 | – | < 100 | < 100000 | < 100
4 | Cc1cccc2cc([C@H](C)Nc3ncnc4[nH]cc(Br)c34)n(C3CC3)c(=O)c12 | < 100 | < 100 | < 100 | – | –
5 | Cc1cccnc1-n1c(Cn2nc(Cl)c3c(N)ncnc32)cc2cccc(C)c2c1=O | > 10000 | – | < 1000 | > 10000 | < 1000
6 | Cc1cccc2cc(Cn3nc(I)c4c(N)ncnc43)n(C(C)C)c(=O)c12 | > 10000 | > 10000 | 100 to 10000 | > 10000 | –
7 | Cc1ccccc1-n1c(Cn2nc(CCC(N)=O)c3c(N)ncnc32)cc2cccc(C)c2c1=O | < 10000 | > 10000 | < 1000 | > 10000 | –
8 | Cc1cccc2cc([C@H](C)Nc3ncnc4[nH]cc(Br)c34)n(-c3ccccc3)c(=O)c12 | < 100 | < 100 | < 100 | – | < 100
9 | Cc1cccc2cc([C@H](C)Nc3ncnc4[nH]cc(F)c34)n(-c3ccccc3)c(=O)c12 | < 100 | < 100 | < 100 | – | < 100
10 | Cc1cccc2cc(Cn3nc(-c4ccc5nc(N)sc5c4)c4c(N)ncnc43)n(-c3ccccc3)c(=O)c12 | < 100 | – | < 100 | < 100000 | < 100
11 | Cc1cccc2cc(Cn3nc(C#C[C@@H](C)O)c4c(N)ncnc43)n(C3CCCC3)c(=O)c12 | < 10000 | < 10000 | < 100 | > 10000 | –
12 | Cc1cccc2cc([C@H](C)Nc3ncnc4[nH]cc(F)c34)n(C3CC3)c(=O)c12 | < 100 | < 100 | < 100 | – | < 100
13 | Cc1cccc2cc([C@H](C)Nc3ncnc4[nH]cc(C#N)c34)n(-c3ccccc3)c(=O)c12 | < 100 | < 100 | < 100 | – | –
14 | Cc1ccncc1-n1c(Cn2nc(I)c3c(N)ncnc32)cc2cccc(C)c2c1=O | < 1000 | > 10000 | < 100 | – | < 1000
15 | Cc1cccc2cc(Cn3nc(-c4cccc(O)c4)c4c(N)ncnc43)n(C3CCCC3)c(=O)c12 | < 1000 | < 10000 | < 100 | > 10000 | –
16 | Cc1cccc2cc([C@H](C)Nc3ncnc4[nH]nc(C#N)c34)n(-c3ccccc3)c(=O)c12 | < 100 | < 100 | < 100 | – | < 100
17 | Cc1cccc2cc([C@H](C)Nc3ncnc4[nH]cc(C#N)c34)n(C3CC3)c(=O)c12 | < 100 | < 100 | < 100 | – | < 100
18 | Cc1cccc2cc(Cn3nc(-c4ccc5oc(N)nc5c4)c4c(N)ncnc43)n(-c3ccccc3)c(=O)c12 | < 100 | – | < 100 | – | < 100
19 | CC(=O)Nc1nc2cc(-c3nn(Cc4cc5cccc(C)c5c(=O)n4-c4ccccc4)c4ncnc(N)c34)ccc2o1 | < 100 | < 100 | < 100 | – | < 100
20 | CC(=O)Nc1nc2ccc(-c3nn(Cc4cc5cccc(C)c5c(=O)n4-c4ccccc4C)c4ncnc(N)c34)cc2[nH]1 | < 100 | – | < 100 | – | < 100
21 | Cc1cccc2cc([C@H](C)Nc3nc(N)ncc3Cl)n(-c3ccccc3)c(=O)c12 | < 100 | – | < 100 | – | < 100
22 | Cc1ccccc1-n1c(CN(C)c2ncnc3[nH]cnc23)cc2cccc(C)c2c1=O | < 10000 | > 10000 | – | > 10000 | –
23 | Cc1cccc2cc([C@H](C)Nc3ncnc4[nH]ccc34)n(-c3ccccc3)c(=O)c12 | < 100 | – | < 100 | – | < 100
24 | Cc1ccccc1-n1c(Cn2nc(C(F)F)c3c(N)ncnc32)cc2cccc(C)c2c1=O | < 100 | – | < 100 | – | < 100
25 | Cc1cccc2cc([C@H](C)Nc3ncnc4[nH]cc(C(N)=O)c34)n(-c3ccccc3)c(=O)c12 | < 100 | < 100 | < 100 | – | –
26 | Cc1cccc2cc(Cn3nc(CF)c4c(N)ncnc43)n(-c3ccccc3)c(=O)c12 | < 100 | – | < 100 | – | < 100
27 | Nc1ncnc2c1c(-c1cn[nH]c1)nn2Cc1cc2cccc(F)c2c(=O)n1-c1ccccc1F | < 10000 | > 10000 | < 1000 | > 10000 | –

Row | Structure (SMILES) | IC50 [1] [nM] | IC50 (PI3K p110 beta/p85 alpha) [nM] | IC50 [2] [nM] | IC50 [3] [nM] | EC50 [4] [nM]
28 | Cc1cccc2cc(C(C)Nc3ncnc4[nH]cnc34)n(-c3ccc(F)cc3)c(=O)c12 (configuration not stated) | < 100 | – | < 100 | – | < 100
29 | C=Cc1nn(Cc2cc3cccc(C)c3c(=O)n2-c2ccccc2F)c2ncnc(N)c12 | < 10000 | > 10000 | < 1000 | > 10000 | –
30 | Cc1cccc2cc(Cn3nc(-c4ccn[nH]4)c4c(N)ncnc43)n(-c3ccccc3F)c(=O)c12 | < 10000 | > 10000 | < 1000 | > 10000 | –
31 | Cc1cccc2cc([C@H](C)Nc3ncnc4[nH]ccc34)n(C3CC3)c(=O)c12 | < 100 | < 100 | < 100 | – | –
32 | Cc1ccccc1-n1c(Cn2nc(-c3cnn(C)c3)c3c(N)ncnc32)cc2cccc(C)c2c1=O | < 1000 | > 10000 | < 10000 | > 10000 | –
33 | Cc1cccc2cc([C@H](C)Nc3ncnc4[nH]nc(C(N)=O)c34)n(C3CC3)c(=O)c12 | < 100 | < 100 | < 100 | – | –
34 | Cc1ccccc1-n1c(Cn2nc(CCC(=O)N3CCOCC3)c3c(N)ncnc32)cc2cccc(C)c2c1=O | > 10000 | > 10000 | < 10000 | > 10000 | –
35 | CCC(Nc1ncnc2[nH]cnc12)c1cc2cccc(C)c2c(=O)n1-c1ccc(F)cc1 (configuration not stated) | < 100 | – | < 100 | – | < 100
36 | Cc1cccc2cc(Cn3cnc4c(N)ncnc43)n(-c3ccccc3F)c(=O)c12 | > 10000 | – | < 10000 | – | < 10000
37 | Cc1cccc2cc([C@H](C)Nc3ncnc4[nH]cnc34)n(C3CC3)c(=O)c12 | < 100 | < 100 | < 100 | – | < 100
38 | Cc1cccc2cc([C@H](C)Nc3ncnc4[nH]cnc34)n(-c3ccccc3)c(=O)c12 | < 100 | – | < 100 | – | < 100
39 | CC(=O)Nc1nc2cc(-c3nn(Cc4cc5cccc(C)c5c(=O)n4-c4ccccc4C)c4ncnc(N)c34)ccc2o1 | < 100 | – | < 100 | – | < 100
40 | Cc1ccccc1-n1c(Cn2nc(Cl)c3c(N)ncnc32)cc2cccc(C)c2c1=O | < 1000 | – | < 100 | > 10000 | < 1000
41 | Cc1cccc2cc(Cn3nc(I)c4c(N)ncnc43)n(-c3ccccc3F)c(=O)c12 | < 1000 | – | < 100 | – | < 10000
42 | C[C@H](Nc1ncnc2[nH]cnc12)c1cc2cccc(Cl)c2c(=O)n1C1CC1 | < 100 | < 100 | < 100 | – | < 100
43 | Cc1ccccc1-n1c(Cn2nc(-c3cccc(O)c3)c3c(N)ncnc32)cc2ccccc2c1=O | < 1000 | – | < 100 | > 10000 | < 1000
44 | Cc1ccccc1-n1c(Cn2nc(-c3ccc4sc(N)nc4c3)c3c(N)ncnc32)cc2cccc(C)c2c1=O | < 100 | – | < 100 | – | < 100
45 | Cc1cccc2cc([C@H](C)Nc3ncnc4[nH]cc(Cl)c34)n(-c3ccccc3)c(=O)c12 | < 100 | < 100 | < 100 | – | –
46 | Cc1cccc2cc([C@H](C)Nc3nc(Cl)nc4[nH]cnc34)n(-c3ccccc3)c(=O)c12 | < 100 | – | < 100 | – | < 100
47 | Cc1cccc2cc(Cn3nc(C#CC4CC4)c4c(N)ncnc43)n(-c3ccccc3F)c(=O)c12 | > 10000 | – | < 1000 | – | < 1000
48 | Cc1cccc2cc([C@H](C)Nc3ncnc4[nH]nc(C(N)=O)c34)n(-c3ccccc3)c(=O)c12 | < 100 | < 100 | < 100 | – | < 100
49 | CCC(Nc1ncnc2[nH]cnc12)c1cc2cccc(C)c2c(=O)n1-c1ccccc1 (configuration not stated) | < 100 | – | < 100 | – | < 100
50 | Cc1cccc2cc(Cn3nc(I)c4c(N)ncnc43)n(-c3ccccc3Cl)c(=O)c12 | < 1000 | > 10000 | < 100 | – | < 1000
51 | COc1ccc(-c2nn(Cc3cc4cccc(C)c4c(=O)n3-c3ccccc3F)c3ncnc(N)c23)cc1OC | < 1000 | – | < 1000 | > 10000 | < 1000
52 | Cc1cccc2cc(Cn3nc(-c4ccc5sc(N)nc5c4)c4c(N)ncnc43)n(-c3ccccc3)c(=O)c12 | < 100 | – | < 100 | – | < 100
53 | Cc1cccnc1-n1c(Cn2nc(Br)c3c(N)ncnc32)cc2cccc(C)c2c1=O | < 10000 | – | < 1000 | > 10000 | < 100
